Test results as given in article PMC3758386 (Psychopharmacology, 2013).
Values joined by “and” are separate entries in the source; they are usually repeats but may differ in a detail not shown here. Identical values can stand only once.

Experiments:
[1] = system: rats; assay: Place conditioning; type: in vivo; conditions: rat
[2] = target: K+ Channel hERG (Homo sapiens, UniProt Q12809); assay: receptor screen, K+ Channel hERG; type: binding; conditions: from Ki values of Table 2
[3] = system: extracellular DA levels in the NAC shell; assay: In vivo microdialysis, extracellular DA in NAC shell; conditions: rat; for rate of increase in DA concentrations: ±SEM; for DA concentrations in NAC shell at times of conditioning sessions compared with 3.0 mg/kg cocaine (165% of basal): pretreatment 0, 45, 90 min
[4] = system: Y335A mutant DAT; conditions: transfected cells, cited from earlier work
[5] = system: DAT; assay: radioligand binding, DAT; conditions: from Ki values of Table 2
[6] = target: T1, Testosterone (Rattus norvegicus, UniProt P15207); assay: receptor screen, Testosterone; type: binding; conditions: inactive = displacement at 10,000 nM less than 75%
T1 sequence (P15207 651-882 limits assumed): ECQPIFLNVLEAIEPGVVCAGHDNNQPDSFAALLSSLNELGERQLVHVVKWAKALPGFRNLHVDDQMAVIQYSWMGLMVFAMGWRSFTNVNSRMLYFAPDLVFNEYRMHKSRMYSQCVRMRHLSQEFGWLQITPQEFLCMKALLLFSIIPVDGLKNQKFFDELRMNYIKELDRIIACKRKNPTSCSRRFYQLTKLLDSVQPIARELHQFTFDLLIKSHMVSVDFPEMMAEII

[7] = target: Estrogen ERα (Homo sapiens, UniProt P03372); assay: receptor screen, Estrogen ERα; type: binding; conditions: inactive = displacement at 10,000 nM less than 75%
[8] = target: Muscarinic M3 (Homo sapiens, UniProt P20309); assay: receptor screen, Muscarinic M3; type: binding; conditions: read-out: Ki Muscarinic M3, [3H]N-methylscopolamine
[9] = target: T2, Progesterone (Bos taurus, UniProt F1N712); assay: receptor screen, Progesterone; type: binding, Bovine; conditions: [3H]R-5020, inactive = displacement at 10,000 nM less than 75%
T2 sequence (F1N712 1-914): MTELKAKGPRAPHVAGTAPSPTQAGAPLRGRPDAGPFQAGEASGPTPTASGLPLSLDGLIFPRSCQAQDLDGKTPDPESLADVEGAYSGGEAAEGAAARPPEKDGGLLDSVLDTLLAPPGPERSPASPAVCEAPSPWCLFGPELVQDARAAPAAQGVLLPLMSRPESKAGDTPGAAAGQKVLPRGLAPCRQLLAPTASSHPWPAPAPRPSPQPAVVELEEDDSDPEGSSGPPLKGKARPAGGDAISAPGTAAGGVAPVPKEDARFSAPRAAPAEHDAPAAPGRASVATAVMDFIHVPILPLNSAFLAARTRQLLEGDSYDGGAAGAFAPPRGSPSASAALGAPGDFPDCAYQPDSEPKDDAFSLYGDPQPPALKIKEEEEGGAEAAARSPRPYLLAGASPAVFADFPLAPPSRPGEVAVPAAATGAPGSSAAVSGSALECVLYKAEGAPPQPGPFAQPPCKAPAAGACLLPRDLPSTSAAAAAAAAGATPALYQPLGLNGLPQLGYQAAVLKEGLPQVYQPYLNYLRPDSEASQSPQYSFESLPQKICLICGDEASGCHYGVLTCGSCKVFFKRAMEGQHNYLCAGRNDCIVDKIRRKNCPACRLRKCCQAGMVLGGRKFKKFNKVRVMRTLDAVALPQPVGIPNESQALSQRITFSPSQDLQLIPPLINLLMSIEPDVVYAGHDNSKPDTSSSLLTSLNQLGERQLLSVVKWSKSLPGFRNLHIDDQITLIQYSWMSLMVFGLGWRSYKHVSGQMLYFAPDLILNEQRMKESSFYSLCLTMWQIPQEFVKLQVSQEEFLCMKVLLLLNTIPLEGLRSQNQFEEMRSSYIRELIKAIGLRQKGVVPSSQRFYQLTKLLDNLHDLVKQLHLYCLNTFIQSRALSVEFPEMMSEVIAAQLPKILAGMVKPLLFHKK

[10] = target: T3, Muscarinic M2 (Homo sapiens, UniProt P08172); assay: receptor screen, Muscarinic M2; type: binding; conditions: read-out: Ki Muscarinic M2, [3H]N-methylscopolamine
T3 sequence (P08172 1-466): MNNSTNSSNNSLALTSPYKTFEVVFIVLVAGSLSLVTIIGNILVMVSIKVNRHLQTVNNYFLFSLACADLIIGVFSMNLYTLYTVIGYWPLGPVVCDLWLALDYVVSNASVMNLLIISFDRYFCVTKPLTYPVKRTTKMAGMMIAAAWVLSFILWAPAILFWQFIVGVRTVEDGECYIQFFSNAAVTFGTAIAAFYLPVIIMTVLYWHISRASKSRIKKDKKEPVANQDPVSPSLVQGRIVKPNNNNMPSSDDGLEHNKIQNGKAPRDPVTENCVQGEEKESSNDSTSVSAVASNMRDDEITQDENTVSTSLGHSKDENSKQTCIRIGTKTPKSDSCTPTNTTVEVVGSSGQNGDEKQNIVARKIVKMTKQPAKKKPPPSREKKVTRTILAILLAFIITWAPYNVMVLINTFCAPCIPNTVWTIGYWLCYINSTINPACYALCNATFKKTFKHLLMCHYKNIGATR

[11] = target: Dopamine D2L (Homo sapiens, UniProt P14416); assay: receptor screen, Dopamine D2L; type: binding; conditions: inactive = displacement at 10,000 nM less than 75%
[12] = target: T4, Adenosine A1 (Homo sapiens, UniProt P30542); assay: receptor screen, Adenosine A1; type: binding; conditions: [3H]DPCPX, inactive = displacement at 10,000 nM less than 75%
T4 sequence (P30542 1-326): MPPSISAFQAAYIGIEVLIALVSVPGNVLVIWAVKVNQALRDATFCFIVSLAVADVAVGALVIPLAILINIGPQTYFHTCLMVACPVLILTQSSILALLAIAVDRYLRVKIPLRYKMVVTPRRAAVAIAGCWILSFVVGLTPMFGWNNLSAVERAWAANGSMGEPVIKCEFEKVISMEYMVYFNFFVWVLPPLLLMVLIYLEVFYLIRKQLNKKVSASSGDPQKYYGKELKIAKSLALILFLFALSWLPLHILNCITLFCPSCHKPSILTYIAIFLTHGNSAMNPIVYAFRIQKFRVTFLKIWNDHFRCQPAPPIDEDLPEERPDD

[13] = target: T5, Glucocorticoid (Homo sapiens, UniProt P04150); assay: receptor screen, Glucocorticoid; type: binding; conditions: inactive = displacement at 10,000 nM less than 75%
T5 sequence (P04150 1-777): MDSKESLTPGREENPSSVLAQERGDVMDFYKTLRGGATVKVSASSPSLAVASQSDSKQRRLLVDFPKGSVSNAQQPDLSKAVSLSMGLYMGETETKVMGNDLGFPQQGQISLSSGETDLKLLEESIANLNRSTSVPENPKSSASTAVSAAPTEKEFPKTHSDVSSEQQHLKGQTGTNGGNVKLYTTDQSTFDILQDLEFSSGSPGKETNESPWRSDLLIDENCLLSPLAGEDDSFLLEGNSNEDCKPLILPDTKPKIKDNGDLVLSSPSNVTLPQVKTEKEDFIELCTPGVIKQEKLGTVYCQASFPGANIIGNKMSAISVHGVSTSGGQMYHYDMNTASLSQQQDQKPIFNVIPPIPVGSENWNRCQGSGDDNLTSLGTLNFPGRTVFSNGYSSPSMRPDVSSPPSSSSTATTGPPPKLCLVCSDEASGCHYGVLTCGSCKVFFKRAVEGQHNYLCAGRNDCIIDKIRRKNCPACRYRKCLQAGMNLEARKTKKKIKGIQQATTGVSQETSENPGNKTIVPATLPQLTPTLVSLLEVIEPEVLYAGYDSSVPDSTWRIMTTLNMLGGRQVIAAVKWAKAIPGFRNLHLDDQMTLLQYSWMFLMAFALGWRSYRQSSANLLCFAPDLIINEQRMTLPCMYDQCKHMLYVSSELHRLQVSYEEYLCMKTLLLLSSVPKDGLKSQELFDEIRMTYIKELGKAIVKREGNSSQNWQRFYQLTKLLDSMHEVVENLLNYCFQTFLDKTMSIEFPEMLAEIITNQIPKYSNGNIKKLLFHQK

[14] = i.p. (1 to 10 mg/kg), injected immediately before conditioning sessions
[15] = 10 mg/kg i.p., initial phase, first 30 min (cocaine: up to the maximum)

Chain of K+ Channel hERG (Q12809 whole entry): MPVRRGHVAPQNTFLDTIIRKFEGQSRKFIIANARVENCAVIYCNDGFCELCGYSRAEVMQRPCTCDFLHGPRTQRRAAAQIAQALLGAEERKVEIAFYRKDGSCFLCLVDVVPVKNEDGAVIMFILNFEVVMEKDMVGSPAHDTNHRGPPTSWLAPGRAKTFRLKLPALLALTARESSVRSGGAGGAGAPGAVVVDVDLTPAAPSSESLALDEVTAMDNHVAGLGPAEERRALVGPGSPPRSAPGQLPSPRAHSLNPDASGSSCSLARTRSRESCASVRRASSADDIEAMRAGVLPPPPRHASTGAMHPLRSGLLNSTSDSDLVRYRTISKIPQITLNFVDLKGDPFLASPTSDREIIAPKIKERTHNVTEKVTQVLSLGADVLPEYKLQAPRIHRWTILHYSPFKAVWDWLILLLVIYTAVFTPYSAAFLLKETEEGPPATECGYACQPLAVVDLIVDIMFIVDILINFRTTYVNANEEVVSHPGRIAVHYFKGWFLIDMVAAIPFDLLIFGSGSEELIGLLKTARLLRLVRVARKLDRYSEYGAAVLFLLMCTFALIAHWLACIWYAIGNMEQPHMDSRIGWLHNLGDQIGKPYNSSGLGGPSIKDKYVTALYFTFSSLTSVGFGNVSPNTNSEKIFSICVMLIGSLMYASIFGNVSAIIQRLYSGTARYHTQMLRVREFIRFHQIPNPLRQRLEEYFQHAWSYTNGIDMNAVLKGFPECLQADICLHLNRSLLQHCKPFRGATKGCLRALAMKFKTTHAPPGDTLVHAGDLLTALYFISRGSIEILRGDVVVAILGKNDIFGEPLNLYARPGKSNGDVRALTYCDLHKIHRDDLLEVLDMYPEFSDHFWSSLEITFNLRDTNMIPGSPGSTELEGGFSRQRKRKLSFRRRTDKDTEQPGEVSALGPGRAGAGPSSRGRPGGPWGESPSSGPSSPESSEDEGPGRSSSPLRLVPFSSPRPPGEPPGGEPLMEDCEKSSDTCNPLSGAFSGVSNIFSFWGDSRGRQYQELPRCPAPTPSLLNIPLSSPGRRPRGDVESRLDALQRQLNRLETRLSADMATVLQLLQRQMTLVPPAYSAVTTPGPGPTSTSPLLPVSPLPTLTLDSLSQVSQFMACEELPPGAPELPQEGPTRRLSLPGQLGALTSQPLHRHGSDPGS
Chain of Muscarinic M3 (P20309 whole entry): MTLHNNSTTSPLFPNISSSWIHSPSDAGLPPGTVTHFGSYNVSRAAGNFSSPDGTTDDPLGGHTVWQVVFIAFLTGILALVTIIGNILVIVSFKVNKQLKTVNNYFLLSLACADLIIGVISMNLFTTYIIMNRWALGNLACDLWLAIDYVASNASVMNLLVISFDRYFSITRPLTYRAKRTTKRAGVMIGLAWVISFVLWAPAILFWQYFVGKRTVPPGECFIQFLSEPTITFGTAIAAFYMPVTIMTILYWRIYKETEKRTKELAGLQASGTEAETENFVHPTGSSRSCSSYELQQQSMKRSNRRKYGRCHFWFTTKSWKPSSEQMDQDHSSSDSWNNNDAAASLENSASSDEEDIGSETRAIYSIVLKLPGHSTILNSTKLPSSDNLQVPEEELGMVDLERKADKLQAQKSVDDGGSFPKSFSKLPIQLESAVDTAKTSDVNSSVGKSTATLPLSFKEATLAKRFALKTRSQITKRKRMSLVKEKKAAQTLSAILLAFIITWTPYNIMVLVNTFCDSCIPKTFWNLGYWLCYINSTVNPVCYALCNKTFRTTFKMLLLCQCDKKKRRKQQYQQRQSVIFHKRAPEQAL
Chain of Estrogen ERα (P03372 whole entry): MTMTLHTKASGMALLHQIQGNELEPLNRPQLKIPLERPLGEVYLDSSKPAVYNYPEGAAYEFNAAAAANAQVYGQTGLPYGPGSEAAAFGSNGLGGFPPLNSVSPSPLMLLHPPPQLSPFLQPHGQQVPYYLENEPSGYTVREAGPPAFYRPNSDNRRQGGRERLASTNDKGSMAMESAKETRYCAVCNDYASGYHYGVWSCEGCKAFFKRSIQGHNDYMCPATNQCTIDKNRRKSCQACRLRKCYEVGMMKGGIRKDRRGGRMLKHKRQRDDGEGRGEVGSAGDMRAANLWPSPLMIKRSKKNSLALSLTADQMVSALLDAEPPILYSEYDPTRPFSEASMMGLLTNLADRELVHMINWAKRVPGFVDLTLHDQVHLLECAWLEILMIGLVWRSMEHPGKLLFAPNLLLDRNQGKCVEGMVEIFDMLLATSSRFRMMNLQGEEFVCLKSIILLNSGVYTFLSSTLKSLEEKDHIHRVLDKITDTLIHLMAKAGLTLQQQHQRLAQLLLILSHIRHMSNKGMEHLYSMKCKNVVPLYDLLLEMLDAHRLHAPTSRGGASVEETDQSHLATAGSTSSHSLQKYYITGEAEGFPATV
Chain of Dopamine D2L (P14416 whole entry): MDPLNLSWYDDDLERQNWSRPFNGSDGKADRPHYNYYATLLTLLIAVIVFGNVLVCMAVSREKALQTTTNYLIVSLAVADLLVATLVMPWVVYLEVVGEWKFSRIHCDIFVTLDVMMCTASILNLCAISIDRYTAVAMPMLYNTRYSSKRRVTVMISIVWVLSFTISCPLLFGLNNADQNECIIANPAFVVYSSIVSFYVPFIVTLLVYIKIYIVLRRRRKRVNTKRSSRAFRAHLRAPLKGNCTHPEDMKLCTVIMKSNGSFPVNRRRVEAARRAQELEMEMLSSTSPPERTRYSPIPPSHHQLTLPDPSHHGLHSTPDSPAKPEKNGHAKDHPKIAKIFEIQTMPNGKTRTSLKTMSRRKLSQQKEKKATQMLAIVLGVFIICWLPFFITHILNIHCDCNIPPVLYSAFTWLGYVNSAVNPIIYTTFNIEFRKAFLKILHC

Row | SMILES | place conditioning (time allocated to compound-paired compartment) [1, 14] | selectivity K+ hERG channel over the DAT [2] | effect on dialysate DA levels from the NAC shell ([3]; 1.0 mg/kg i.p.) | effect on dialysate DA levels from the NAC shell ([3]; 3.0 mg/kg i.p.) | DA concentrations in NAC shell at times of conditioning sessions compared with 3.0 mg/kg cocaine (165% of basal) ([3]; 3.0 mg/kg i.p.) | duration of increase in DA levels ([3]; 10 mg/kg i.p.) | time after injection at which DA exceeded 165% of basal values ([3]; 10 mg/kg i.p.) [min] | time after injection until which DA increase continued (peak) ([3]; 10 mg/kg i.p.) | rate of increase in DA concentrations [3, 15] | DA concentrations in NAC shell at times of conditioning sessions compared with 3.0 mg/kg cocaine (165% of basal) ([3]; 10.0 mg/kg i.p.) | effect on dialysate DA levels from the NAC shell ([3]; 10 mg/kg i.p.) | also measured
1 | CCOC(=O)[C@@H]1C(OC(c2ccc(Cl)cc2)c2ccc(Cl)cc2)C[C@@H]2CC[C@H]1N2C (mixture of isomers) [MFZ 4-86, (±)-2α-carboethoxy-3R-[bis(4-chlorophenyl)methoxy]tropane] | without significant place-conditioning effects | ~ 20 fold | increases in DA that did not achieve statistical significance | also increased DA concentrations, though less than at the higher dose | levels that approximated those of cocaine in all but the first 30 min | remained elevated for the entire five-hr session | 20 | about 120 min | 6.74 (±0.371) %/min | levels that exceeded those of the 3.0 mg/kg dose of cocaine at all pretreatment times |  | time after injection at which DA exceeded 165% of basal values ([3]; 3.0 mg/kg i.p.): 50 min; rate of increase in DA concentrations ([3]; 3.0 mg/kg i.p., initial phase (cocaine: up to the maximum)): 3.05 (±0.270) %/min; potency in Y335A mutant DAT relative to wild-type DAT (fold lower) ([4]; ref Loland et al. 2008): ~13 fold
2 | COC(=O)[C@@H]1C(OC(c2ccc(Cl)cc2)c2ccc(Cl)cc2)C[C@@H]2CC[C@H]1N2C (mixture of isomers) [MFZ 4-87, (±)-2α-carbomethoxy-3R-[bis(4-chlorophenyl)methoxy]tropane] | did not produce a change in allocation of time to the compound-paired compartment | ~ 20 fold |  |  | levels that approximated those of cocaine in all but the first 30 min | ≥ 4 h |  | about 160 min | 5.59 (±0.712) %/min | levels that exceeded those of the 3.0 mg/kg dose of cocaine at all pretreatment times |  | increase in dialysate DA concentrations ([3]; 1.0 mg/kg i.p.): ≤ 165 % of basal levels; increase in dialysate DA concentrations ([3]; 3.0 mg/kg i.p., slightly exceeded): exceeded 165 % of basal levels; maximum / maintained DA concentration ([3]; 10 mg/kg i.p.): about 350 % of basal levels; selectivity for the DAT compared to any other site assayed [5]: ~ 30 fold
3 | CN1C2CCC1CC(OC(c1ccc(Cl)cc1)c1ccc(Cl)cc1)C2 (stereo not drawn) [4,4-diCl-BZT, 4′-chloro-4″-chloro-3α-(diphenylmethoxy)tropane] | without significant place-conditioning effects |  | did not significantly affect DA levels | did not significantly affect DA levels |  |  | ≤ 20 | about 140 min |  |  | significant increase in DA levels | Ki Testosterone [6]: inactive; Ki Estrogen ERα [7]: inactive; Ki [8]: 10 nM; Ki Progesterone [9]: inactive; Ki [10]: 640 nM; Ki Dopamine D2L [11]: inactive; Ki Adenosine A1 [12]: inactive; Ki Glucocorticoid [13]: inactive
4 | COC(=O)[C@H]1[C@@H](OC(=O)c2ccccc2)C[C@@H]2CC[C@H]1N2C [cocaine, (−)-cocaine, reference compound] |  |  |  | significantly increased extracellular DA concentrations |  |  |  |  | 11.4 (±0.860) %/min |  | significantly increased extracellular DA concentrations | place conditioning (time allocated to compound-paired compartment) ([1]; i.p., each dose tested, injected immediately before sessions): significant place conditioning; rate of increase in DA concentrations ([3]; 3.0 mg/kg i.p., initial phase (cocaine: up to the maximum), 3 mg/kg): 4.84 (±0.359) %/min and 4.84 %/min; potency in Y335A mutant DAT relative to wild-type DAT ([4]; ref Loland et al. 2002): reduced by about two orders of magnitude
